Assay results reported in patent publication US10597366B2, “Aryl ethers and uses thereof” (Peloton Therapeutics, Inc., priority 2013, dated 2020).
Read-outs that look alike come from different tables or passages of the source.

How the values were obtained:
[1] = system: VEGFA concentration in medium of 786-O cells; assay: VEGF ELISA Assay; type: cell-based; conditions: Homo sapiens
Method: Each concentration had duplicated wells. About 20 hours later, medium was removed by suction and each well was supplied with 180 μL of growth medium. About 20 μl freshly-made 10× compound stocks were added to each well. […] The EC50 was calculated by GraphPad Prism using the dose-response-inhibition (four parameter) equation. The cell seeded plate was then subjected to CellTiter-Glo luminescence cell viability assay (Promega) by adding 50 μL of Celltiter Glo reagent into each well and shaking the plate for 8 minutes at 550 rpm (Thermomixer R, Eppendorf) then read luminescence signal in plate reader (3 second delay, 0.5 second/well integration time, Synergy 2 multi Detection Microplate reader) immediately.

[2] = system: 786-O-Hif-Luc cells (luciferase gene driven by multiple HIF responsive elements); assay: Luciferase Assay; type: cell-based; conditions: 24 h, read-out: Mean Luciferease EC50
Method: A pool of infected cells were then selected against 2 μg/mL of puromycin (P8833, Sigma) for 10 days followed by limited dilution to select single clones.
Each concentration was tested in triplicate. After about 24 hours, luciferase activity was determined using ONE-Glo Luciferase Assay Reagent (E6110, Promega) following the manufacturer's recommended procedure. EC50 were calculated by using Dotmatics software.

[3] = system: human VEGFA; assay: Plasma human VEGFA level of 786-O xenograft bearing mice; type: in vivo; conditions: 10, 30 and 100 mg/kg, three times at 12 hour intervals, prior to vs 12 h post treatment, FIG. 5
[4] = system: EPO and PGK1 mRNA in mouse kidney; assay: In vivo PK/PD study: mouse kidney mRNA levels by qRT-PCR; set-up: species or system SCID/Biege mice; conditions: oral gavage three times at 12 hour intervals; 10, 30 or 100 mg/kg
Method: About 5×10^6 renal cell carcinoma 786-O tumor cells (ATCC® CRL-1932, VHL and HIF-1α null cell line) in PBS and Matrigel (1:1 in volume) were injected subcutaneously at the right flanks of SCID/Biege mice at 6-7 weeks of age for xenograft development. When the xenografts reached about 450 mm^3 in size, the tumor bearing mice were randomly divided into 4 groups (n=4). Plasma was collected prior to treatment by retro-orbital bleeding. […] All animals were sacrificed at 12 hours post last dose. Tumor, kidney, and plasma were collected from each animal. Total RNA was extracted from the tumors and kidneys. The mRNA levels of HIF-1α, HIF-2α and their respective target genes were determined by qRT-PCR (FIG. 1).

[5] = system: renal cell carcinoma 786-O xenograft; assay: In vivo efficacy study, 786-O xenograft; set-up: species or system SCID/Biege mice; conditions: all treatment groups; t-Test; Compound 15 20 days, Compound 163 28 days
[6] = 786-0, 786-O cells, read-out: Mean VEGF ELISA EC50
[7] = 786-O-Hif-Luc cells, about 24 hours
[8] = 786-0, read-out: Mean VEGF ELISA EC50

Row | Structure (SMILES) | EC50 [1, 6] [µM] | EC50 [2, 7] [µM] | also measured
1 | CS(=O)(=NC#N)c1ccc(Oc2cc(F)cc(F)c2)c2c1C(O)C(F)(F)C2 (stereo not drawn) [Compound 191, N-((7-(3,5-difluorophenoxy)-2,2-difluoro-3-hydroxy-2,3-dihydro-1H-inden-4-yl)(methyl)(oxo)-λ^6-sulfanylidene)cyanamide] | 0.13 | 0.053 | 
2 | Cc1c(S(=O)(=O)C(F)F)ccc(Oc2cc(F)cc(F)c2)c1C#N [Compound 34, 3-((Difluoromethyl)sulfonyl)-6-(3,5-difluorophenoxy)-2-methylbenzonitrile] | 0.46 | 0.52 | 
3 | O=[N+]([O-])c1c(Oc2cc(F)cc(Cl)c2)ccc(C(F)(F)F)c1Cl [Compound 203, 2-Chloro-4-(3-chloro-5-fluorophenoxy)-3-nitro-1-(trifluoromethyl)benzene] | 0.7 | 0.63 | 
4 | N#Cc1cc(F)cc(Oc2ccc(S(=O)(=O)C(F)F)c(CO)c2Br)c1 [Compound 80, 3-(2-Bromo-4-((difluoromethyl)sulfonyl)-3-(hydroxymethyl)phenoxy)-5-fluorobenzonitrile] | 0.63 | 0.31 | 
5 | CS(=O)(=O)c1ccc(Oc2cc(F)cc(C#N)c2)c2c1[C@H](O)C(F)(F)[C@@H]2F [Compound 292, 3-fluoro-5-[(1S,3R)-2,2,3-trifluoro-1-hydroxy-7-methylsulfonyl-indan-4-yl]oxy-benzonitrile] | 0.0062 | 0.0031 | 
6 | O=S(=O)(CF)c1ccc(Oc2cc(F)c(F)c(F)c2)c2c1[C@H](O)C(F)(F)C2 [Compound 188, (S)-2,2-Difluoro-7-((fluoromethyl)sulfonyl)-4-(3,4,5-trifluorophenoxy)-2,3-dihydro-1H-inden-1-ol] | 0.088 | 0.051 | 
7 | O=S(=O)(c1ccc(Oc2cc(F)cc(F)c2)c2c1[C@H](O)CC2)C(F)F [Compound 2, (R)-7-((Difluoromethyl)sulfonyl)-4-(3,5-difluorophenoxy)-2,3-dihydro-1H-inden-1-ol] | 0.062 | 0.07 | 
8 | O=S(=O)(c1ccc(Oc2cc(F)cc(Cl)c2)c2c1[C@H](O)C(F)(F)C2)C(F)F [Compound 158, (1S)-4-(3-Chloro-5-fluoro-phenoxy)-7-(difluoromethylsulfonyl)-2,2-difluoro-indan-1-ol] | 0.006 | 0.005 | 
9 | O=S(=O)(c1ccc(Oc2ccc(F)cc2)c2c1[C@H](O)C(F)(F)C2)C(F)(F)F [Compound 230, (S)-2,2-Difluoro-4-(4-fluorophenoxy)-7-((trifluoromethyl)sulfonyl)-2,3-dihydro-1H-inden-1-ol] | 0.029 | 0.016 | 
10 | CS(=O)(=O)c1ccc(Oc2cc(Cl)cc(C#N)c2)c2c1[C@H](O)C(F)(F)C2 [Compound 234, (S)-3-Chloro-5-((2,2-difluoro-1-hydroxy-7-(methylsulfonyl)-2,3-dihydro-1H-inden-4-yl)oxy)benzonitrile] |  |  | EC50 [1, 8]: 0.05 µM; EC50 [2]: 0.041 µM
11 | O=S(=O)(c1ccc(Oc2cc(F)cc(Cl)c2)c(Cl)c1CO)C(F)F [Compound 41, (2-Chloro-3-(3-chloro-5-fluorophenoxy)-6-((difluoromethyl)sulfonyl)phenyl)methanol] |  |  | EC50 [1, 8]: 0.57 µM; EC50 [2]: 0.4 µM

Second part, led by results:

Row | EC50 [1, 6] [µM] | EC50 [2, 7] [µM] | Structure (SMILES) | also measured
12 | 0.064 | 0.035 | N#Cc1cncc(Oc2ccc(C(F)(F)F)c3c2CC(F)(F)[C@H]3O)c1 [Compound 303, 5-[(1S)-2,2-difluoro-1-hydroxy-7-(trifluoromethyl)indan-4-yl]oxypyridine-3-carbonitrile] | 
13 | 0.069 | 0.025 | N#Cc1cncc(Oc2ccc(S(=O)(=O)C(F)(F)F)c3c2C[C@@H](F)[C@H]3O)c1 [Compound 225, 5-(((1S,2R)-2-Fluoro-1-hydroxy-7-((trifluoromethyl)sulfonyl)-2,3-dihydro-1H-inden-4-yl)oxy)nicotinonitrile] | 
14 |  | 0.007 | N#Cc1cc(F)cc(Oc2ccc(S(=O)(=O)C(F)F)c3c2CC(F)(F)[C@H]3O)c1 [Compound 15, 3-[(1S)-7-(difluoromethylsulfonyl)-2,2-difluoro-1-hydroxy-indan-4-yl]oxy-5-fluoro-benzonitrile] | plasma level of human VEGFA [3]: reduced; Mouse kidney EPO mRNA level (HIF-2α specifically regulated gene) [4]: reduced; Mouse kidney PGK1 mRNA level (HIF-1α targeted gene) [4]: remained unchanged; Tumor size versus vehicle [5]: statistically significant reduction
15 | 0.016 | 0.011 | N#Cc1cccc(Oc2ccc(S(=O)(=O)C(F)F)c3c2CC(F)(F)[C@H]3O)c1 [Compound 236, (S)-3-((7-((difluoromethyl)sulfonyl)-2,2-difluoro-1-hydroxy-2,3-dihydro-1H-inden-4-yl)oxy)benzonitrile] | 
16 | 0.14 | 0.11 | O=S(=O)(c1ccc(Oc2cc(F)c[n+]([O-])c2)c2c1[C@H](O)C(F)(F)C2)C(F)(F)F [Compound 310, (S)-3-((2,2-difluoro-1-hydroxy-7-((trifluoromethyl)sulfonyl)-2,3-dihydro-1H-inden-4-yl)oxonio)-5-fluoropyridine 1-oxide] | 
17 | 0.15 | 0.49 | CS(=O)(=O)c1ccc(Oc2cncc(C#N)c2)c2c1[C@H](O)C(F)(F)C2 [Compound 325, (S)-5-((2,2-Difluoro-1-hydroxy-7-(methylsulfonyl)-2,3-dihydro-1H-inden-4-yl)oxy)nicotinonitrile] | 
18 | 1.44 | 0.19 | N#Cc1cc(F)cc(Oc2ccc(S(=N)(=O)CF)c3c2CC(F)(F)[C@H]3O)c1 (single isomer, unassigned) [Compound 274] | 
19 | 0.015 | 0.013 | O=S(=O)(c1ccc(Oc2ccc(F)c(F)c2)c2c1[C@H](O)C(F)(F)C2)C(F)(F)F [Compound 233, (S)-4-(3,4-Difluorophenoxy)-2,2-difluoro-7-((trifluoromethyl)sulfonyl)-2,3-dihydro-1H-inden-1-ol] | 
20 | 0.83 | 0.16 | N#Cc1cc(Oc2ccc(S(=O)(=O)C(F)(F)F)c3c2CC(F)(F)[C@H]3O)c[n+]([O-])c1 [Compound 267, (S)-3-cyano-5-((2,2-difluoro-1-hydroxy-7-((trifluoromethyl)sulfonyl)-2,3-dihydro-1H-inden-4-yl)oxy)pyridine 1-oxide] | 
21 | 0.028 | 0.033 | N#Cc1cc(Oc2ccc(S(=O)(=O)C(F)(F)F)c3c2CC(F)(F)[C@H]3O)ccc1F [Compound 228, (S)-5-((2,2-Difluoro-1-hydroxy-7-((trifluoromethyl)sulfonyl)-2,3-dihydro-1H-inden-4-yl)oxy)-2-fluorobenzonitrile] | 
